According to ChEMBL document CHEMBL5620353, “Novel antifungal triazoles with alkynyl-methoxyl side chains: Design, synthesis, and biological activity evaluation” (Eur J Med Chem, 2023):
Converted amounts (≈) assume the structure as drawn.

Key:
Type in all cases: functional
Candida albicans [1] = experiment: Antifungal activity against Candida albicans SC5314 assessed as inhibition of fungal growth incubated for 48 hrs by microbroth dilution method
Candida albicans [2] = experiment: Antifungal activity against Candida albicans 10231 assessed as inhibition of fungal growth incubated for 48 hrs by microbroth dilution method
Nakaseomyces glabratus = experiment: Antifungal activity against Candida glabrata 537 assessed as inhibition of fungal growth incubated for 48 hrs by microbroth dilution method
Candida parapsilosis = experiment: Antifungal activity against Candida parapsilosis 22019 assessed as inhibition of fungal growth incubated for 48 hrs by microbroth dilution method; details: Lodderomyces parapsilosis
Pichia kudriavzevii = experiment: Antifungal activity against Candida krusei 4996 assessed as inhibition of fungal growth incubated for 48 hrs by microbroth dilution method
Candida tropicalis = experiment: Antifungal activity against Candida tropicalis 8915 assessed as inhibition of fungal growth incubated for 48 hrs by microbroth dilution method
Cryptococcus neoformans = experiment: Antifungal activity against Cryptococcus neoformans 32,609 assessed as inhibition of fungal growth incubated for 72 hrs by microbroth dilution method
Aspergillus fumigatus = experiment: Antifungal activity against Aspergillus fumigatus 7544 assessed as inhibition of fungal growth incubated for 72 hrs by microbroth dilution method
Candida albicans [3] = experiment: Antifungal activity against fluconazole-resistant Candida albicans 901 assessed as inhibition of fungal growth incubated for 48 hrs by microbroth dilution method
Candida albicans [4] = experiment: Antifungal activity against fluconazole-resistant Candida albicans 904 assessed as inhibition of fungal growth incubated for 48 hrs by microbroth dilution method
[Candida] auris [5] = Antifungal activity against fluconazole-resistant Candida auris 891 assessed as inhibition of fungal growth incubated for 48 hrs by microbroth dilution method; details: Candidozyma auris
[Candida] auris [6] = Antifungal activity against fluconazole-resistant Candida auris 918 assessed as inhibition of fungal growth incubated for 48 hrs by microbroth dilution method; details: Candidozyma auris
[Candida] auris [7] = Antifungal activity against fluconazole-resistant Candida auris 919 assessed as inhibition of fungal growth incubated for 48 hrs by microbroth dilution method; details: Candidozyma auris
Saccharomyces cerevisiae [8] = experiment: Antifungal activity against recombinant Saccharomyces cerevisiae Y525 overexpressing CaMdr1 assessed as inhibition of fungal growth incubated for 48 hrs by microbroth dilution method
Saccharomyces cerevisiae [9] = experiment: Antifungal activity against recombinant Saccharomyces cerevisiae Y570 overexpressing CaCdr1 assessed as inhibition of fungal growth incubated for 48 hrs by microbroth dilution method
Saccharomyces cerevisiae [10] = experiment: Antifungal activity against recombinant Saccharomyces cerevisiae Y2411 overexpressing ScErg11 assessed as inhibition of fungal growth incubated for 48 hrs by microbroth dilution method
Saccharomyces cerevisiae [11] = experiment: Antifungal activity against recombinant Saccharomyces cerevisiae Y2300 overexpressing ScErg11 assessed as inhibition of fungal growth incubated for 48 hrs by microbroth dilution method
Saccharomyces cerevisiae [12] = experiment: Antifungal activity against recombinant Saccharomyces cerevisiae Y2301 overexpressing ScErg11 Y140F assessed as inhibition of fungal growth incubated for 48 hrs by microbroth dilution method
Saccharomyces cerevisiae [13] = experiment: Antifungal activity against recombinant Saccharomyces cerevisiae Y2513 overexpressing ScErg11 Y140H assessed as inhibition of fungal growth incubated for 48 hrs by microbroth dilution method
Saccharomyces cerevisiae [14] = experiment: Antifungal activity against recombinant Saccharomyces cerevisiae Y2374 overexpressing CgErg11 assessed as inhibition of fungal growth incubated for 48 hrs by microbroth dilution method
Saccharomyces cerevisiae [15] = experiment: Antifungal activity against recombinant Saccharomyces cerevisiae Y2462 overexpressing ScErg11 ScNcp1 assessed as inhibition of fungal growth incubated for 48 hrs by microbroth dilution method
Saccharomyces cerevisiae [16] = experiment: Antifungal activity against recombinant Saccharomyces cerevisiae Y2459 overexpressing CaErg11 CaCpr assessed as inhibition of fungal growth incubated for 48 hrs by microbroth dilution method
Saccharomyces cerevisiae [17] = experiment: Antifungal activity against recombinant Saccharomyces cerevisiae Y2721 overexpressing CpErg11 CpCpr assessed as inhibition of fungal growth incubated for 48 hrs by microbroth dilution method
Saccharomyces cerevisiae [18] = experiment: Antifungal activity against recombinant Saccharomyces cerevisiae Y2716 overexpressing CpErg11 Y132F CpCpr assessed as inhibition of fungal growth incubated for 48 hrs by microbroth dilution method

In the case of `C[C@@H](c1nc(-c2ccc(C#N)cc2)cs1)[C@](O)(Cn1cncn1)c1ccc(F)cc1F` [RAVUCONAZOLE], the MIC (Candida albicans [1]) is reported as 0.25 µg/mL (≈ 0.571 µM), the MIC (Candida albicans [2]) is reported as 16 µg/mL (≈ 36.6 µM) and the MIC (Nakaseomyces glabratus) is reported as ≤ 0.125 µg/mL. The MIC (Candida parapsilosis) was ≤ 0.125 µg/mL, the MIC (Pichia kudriavzevii) was ≤ 0.125 µg/mL and the MIC (Candida tropicalis) was 4 µg/mL (≈ 9.14 µM). The MIC (Cryptococcus neoformans) was ≤ 0.125 µg/mL, the MIC (Aspergillus fumigatus) was 0.25 µg/mL (≈ 0.571 µM) and the MIC (Candida albicans [3]) was 16 µg/mL (≈ 36.6 µM). The MIC (Candida albicans [4]) was 16 µg/mL (≈ 36.6 µM), the MIC ([Candida] auris [5]) was 1 µg/mL (≈ 2.29 µM) and the MIC ([Candida] auris [6]) was 1 µg/mL (≈ 2.29 µM). It also gave an MIC ([Candida] auris [7]) of 1 µg/mL (≈ 2.29 µM), an MIC (Saccharomyces cerevisiae [8]) of 0.125 µg/mL and an MIC (Saccharomyces cerevisiae [9]) of 32 µg/mL. For the same molecule, the MIC (Saccharomyces cerevisiae [10]) was 0.008 µg/mL, the MIC (Saccharomyces cerevisiae [11]) was 0.063 µg/mL and the MIC (Saccharomyces cerevisiae [12]) was 0.063 µg/mL. The MIC (Saccharomyces cerevisiae [13]) was 0.016 µg/mL, the MIC (Saccharomyces cerevisiae [14]) was 0.063 µg/mL and the MIC (Saccharomyces cerevisiae [15]) was 0.063 µg/mL. The MIC (Saccharomyces cerevisiae [16]) was 0.016 µg/mL, the MIC (Saccharomyces cerevisiae [17]) was 0.031 µg/mL and the MIC (Saccharomyces cerevisiae [18]) was 0.031 µg/mL.

`CC(=O)N1CCN(c2ccc(OCC3COC(Cn4ccnc4)(c4ccc(Cl)cc4Cl)O3)cc2)CC1` (stereo not given) [KETOCONAZOLE] was tested, and the MIC (Saccharomyces cerevisiae [8]) was 1 µg/mL, the MIC (Saccharomyces cerevisiae [9]) was > 64 µg/mL and the MIC (Saccharomyces cerevisiae [10]) was 0.5 µg/mL. The MIC (Saccharomyces cerevisiae [11]) was 2 µg/mL, the MIC (Saccharomyces cerevisiae [12]) was 2 µg/mL and the MIC (Saccharomyces cerevisiae [13]) was 1 µg/mL. The MIC (Saccharomyces cerevisiae [14]) was 1 µg/mL, the MIC (Saccharomyces cerevisiae [15]) was 1 µg/mL and the MIC (Saccharomyces cerevisiae [16]) was 0.5 µg/mL. The MIC (Saccharomyces cerevisiae [17]) was 0.5 µg/mL and the MIC (Saccharomyces cerevisiae [18]) was 2 µg/mL.
